Measured values as given in US9029574B2, “Bicyclic compound and use thereof for medical purposes” (Ono Pharmaceutical Co., Ltd., priority 2011, dated 2015).

How the values were obtained:
Assay type in all cases: in vivo
male dog (TOYO Beagle) = test: Intraocular pressure lowering action in dog after ocular instillation; settings: for Maximum of intraocular pressure lowering rate (%): ocular instillation 30 μL, maximum among 2, 4, 6, 8 and 24 hours; for intraocular pressure lowering action as compared with latanoprost: ocular instillation, in words
Experimental: As can be easily understood by a person skilled in the art, in an in vivo test, since regarding all test compounds, carboxylic acid which is an active body has bad corneal permeability, pharmacological action of the active body was assessed by ocular instillation administration of a compound which had been converted into an ester such as a methyl ester, an ethyl ester, an isopropyl ester etc. In addition, in a group of the compound of the present inventions, by ocular instillation administration of the ester body in an experimental animal (rabbit, dog etc.) by which pharmacological action is confirmed below and, thereafter, measurement of a drug concentration of carboxylic acid in an aqueous humor, it was confirmed that the ester is rapidly converted into corresponding carboxylic acid.
(2-1) Intraocular Pressure Lowering Action
To one eye of a male dog (TOYO Beagle) which had been sufficiently acclimated in advance, 30 μL of each test compound (the compound of Example 16 (35), the compound of Example 16 (3) and the compound of Example 16 (25)) which had been adjusted with a base (containing citrate buffer pH 6.5, 0.5% polysorbate 80, 1% propylene glycol, […]), was ocular-instilled respectively. The other eye was not treated. As a positive control compound, latanoprost which is the known compound was used.
Thereafter, an ocular surface anesthetic (Benoxil eye drops 0.4%, Santen Pharmaceutical Co., Ltd.) was subjected to ocular instillation to locally anesthetize eyes, and an intraocular pressure of each test compound before ocular instillation and after 2, 4, 6, 8, and 24 hours from ocular instillation was measured. An intraocular pressure was measured using a pneumatic applanation flat tonometer (Model 30 Classic, REICHERT). An intraocular pressure lowering rate (%) was calculated by the following equation.

[1] = system: male rabbit (NewZealandWhite); test: Aqueous humor protein concentration in rabbit after ocular instillation; settings: ocular instillation 30 μL of 0.1% (w/v), aqueous humor collected 0 to 8 hours
Experimental: (2-2) Assessment of Ocular Stimulating Property and Aqueous Humor Protein Concentration
To one eye of a male rabbit (NewZealandWhite, 2.0 to 3.0 kg), 30 μL of the compound of Example 16 (35), the compound of Example 16 (3) and the compound of Example 16 (25) which had been adjusted to 0.1% (w/v) with a base (containing citrate buffer pH 6.5, 0.5% polysorbate 80, 1% propylene glycol, 0.01% benzalkonium chloride), was ocular-instilled respectively. Thereafter, an aqueous humor in anterior chamber after 0, 1, 2, 4, 6 and 8 hours from ocular instillation was collected, and a protein concentration in the humor was measured. As a comparative compound, the aforementioned methyl ester of the compound of Example 12 described in Patent Literature 2 (i.e. compound of Example 10 described in Patent Literature 2) (hereinafter, abbreviated as Comparative Compound B in some cases) was used.
Regarding any test compound, a dose until a dissolution limit (150 to 1000 μg/mL) was administered and action of each active body was assessed.

[2] = system: male monkey (crab-eating monkey); test: Intraocular pressure lowering action in monkey under consciousness; settings: ocular instillation 30 μL, 10 μg/mL; for Maximum intraocular pressure lowering rate (%): maximum up to 24 hours
Experimental: (2-3) Intraocular Pressure Lowering Action in Monkey Under Consciousness
To a left eye of a male monkey (crab-eating monkey) under consciousness, 30 μL of a solution obtained by adjusting a test substance with using the same base as that described above was ocular instillation-administered and, to a right eye, 30 μL of a solution of only a base as a control was ocular instillation-administered, respectively. An intraocular pressure after administration was measured with time from administration initiation until 24 hours. In case of measurement of an intraocular pressure, a crab-eating monkey was fixed on a monkey chair, and the monkey was anesthetized by ocular instillation-administering an ocular surface anesthetic (Benoxil eye drops 0.4% Santen Pharmaceutical Co., Ltd.). After mounting of a blepharostat (Handaya Co., Ltd.), an intraocular pressure of both eyes was measured (5 to 8 examples per group) with using a pneumatic applanation flat tonometer (Model 30 Classic, REICHERT). A difference in an intraocular pressure value between control eyes and eyes to which a test substance had been administered, was calculated as an intraocular pressure lowering rate with using the following equation, and sustainability of intraocular eye lowering action was assessed using a maximum intraocular pressure lowering rate during measurement and an intraocular pressure lowering rate after 24 hours. As the test substance, the Comparative Compound B, and the compounds of Example 16 (3), Example 16 (25) and Example 16 (35) were used, and an administration dose was 10 μg/mL in all cases.

| Structure (SMILES) | Maximum of intraocular pressure lowering rate (%) (male dog (TOYO Beagle); administration dose 10 μg/mL) | intraocular pressure lowering action as compared with latanoprost (male dog (TOYO Beagle)) | action of raising a protein concentration in an aqueous humor [1] | Intraocular pressure lowering rate (%) after 24 hours [2] [%] | Maximum intraocular pressure lowering rate (%) [2] [%] | Maximum of intraocular pressure lowering rate (%) (male dog (TOYO Beagle); administration dose 50 μg/mL) |
| --- | --- | --- | --- | --- | --- | --- |
| CC(C)OC(=O)CCC[C@H]1CC[C@@H]2[C@@H](/C=C/[C@@H](O)COc3cccc(Cl)c3)[C@H](O)C[C@@H]2OC1 [Example 16 (3), 2-Propanyl 4-{(3S,5aR,6R,7R,8aS)-6-[(1E,3R)-4-(3-chlorophenoxy)-3-hydroxy-1-buten-1-yl]-7-hydroxyoctahydro-2H-cyclopenta[b]oxepin-3-yl}butanoate] | 35.7 | stronger intraocular pressure lowering action | no action of raising a protein concentration in an aqueous humor | 15.1 ± 2.0 | 28.8 ± 2.2 |  |
| CC(C)OC(=O)CCC[C@H]1CC[C@@H]2[C@@H](/C=C/[C@@H](O)COc3cc(F)ccc3F)[C@H](O)C[C@@H]2OC1 [Example 16 (25), 2-Propanyl 4-{(3S,5aR,6R,7R,8aS)-6-[(1E,3R)-4-(2,5-difluorophenoxy)-3-hydroxy-1-buten-1-yl]-7-hydroxyoctahydro-2H-cyclopenta[b]oxepin-3-yl}butanoate] | 40.6 | stronger intraocular pressure lowering action | no action of raising a protein concentration in an aqueous humor | 17.5 ± 2.1 | 26.5 ± 1.7 |  |
| CCOC(=O)CCC[C@H]1CC[C@@H]2[C@@H](/C=C/[C@@H](O)COc3ccccc3)[C@H](O)C[C@@H]2OC1 [Example 16 (35), Ethyl 4-{(3S,5aR,6R,7R,8aS)-7-hydroxy-6-[(1E,3R)-3-hydroxy-4-phenoxy-1-buten-1-yl]octahydro-2H-cyclopenta[b]oxepin-3-yl}butanoate] | 31 | stronger intraocular pressure lowering action | no action of raising a protein concentration in an aqueous humor | 14.9 ± 4.7 | 19.2 ± 2.6 |  |
| CC(C)OC(=O)CCC/C=C\C[C@@H]1[C@@H](CC[C@@H](O)CCc2ccccc2)[C@H](O)C[C@@H]1O [Latanoprost, latanoprost, reference compound] |  |  |  |  |  | 25.4 |
